Experimental data: patent publication US9918981B2, “Liquid buprenorphine formulations” (Insys Development Company, Inc., priority 2013, dated 2018)

Experiment: Bioavailability of buprenorphine sublingual spray vs Buprenex intramuscular and intravenous injection, crossover study
Settings: for AUC(0-t) / AUC(inf) / Cmax / Tmax / t½ / λz: overnight fast
[1] = Intramuscular 0.3 mg (Buprenex injection)
[2] = Intravenous 0.3 mg (Buprenex bolus injection)
[3] = after sublingual administration (1 mg spray)

Description: This was an open-label, 3-treatment, 3-period, 6-sequence, single-dose, randomized crossover study. Eighteen healthy male and female volunteers were randomly assigned to 1 of 6 treatment sequences. Dosing occurred after an overnight fast and there was a minimum 14-day washout between the dosing in two periods.

In the case of Buprenorphine, the “AUC(0-t)” value [1] is reported as 4.97 ± 0.90 ng·h/mL, the “AUC(inf)” value [1] is reported as 5.50 ± 0.83 ng·h/mL and the Cmax [1] is reported as 1.73 ± 1.08 ng/mL. For the same substance, the Tmax [1] was 0.17 h, the t½ [1] was 12.0 ± 5.31 h and the λz [1] was 0.0655 ± 0.0210. The “AUC(0-t)” value [2] was 5.09 ± 1.01 ng·h/mL, the “AUC(inf)” value [2] was 5.51 ± 1.21 ng·h/mL and the Cmax [2] was 3.95 ± 3.66 ng/mL. The Tmax [2] was 0.083 h, the t½ [2] was 9.37 ± 6.49 h and the λz [2] was 0.1028 ± 0.0641. The “absolute bioavailability based on AUC(0-t)” value [3] was 41.03% and the “absolute bioavailability based on AUC(inf)” value [3] was 42.57%.
